Read-outs that look alike come from different tables or passages of the source.
Key:
Format in all cases: biochemical
[1] = tested on: nitrile hydratase of Rhodococcus sp. Cr4; conditions: for effect on enzyme activity (words): inhibitors
Protocol: (§1) The standard assay method for the nitrile hydratase activity used in the following Examples as follows. The enzyme reaction is initiated by adding 3-cyanopyridine or 2-hydroxy-4-methylthiobutyronitrile (HMBN) as the substrate compound. In the case of 3-cyanopyridine, incubation was continued at 20° C. for 10 minute, in the case of HMBN, at 20° C. for 15 minutes. When 3-cyanopyridine was used in the reaction, 0.1 ml of 2 N hydrochloric acid was added to the reaction and the mixture was shaken vigorously to stop the reaction; when HMBN was used in the reaction, 0.1 ml of the reaction solution was added to 0.9 ml of 0.1% (v/v) phosphoric acid and the mixture was shaken vigorously to stop the reaction. The reaction solution was analyzed by HPLC.
• 10% (v/v) HMBN was added to initiate the reaction. • The mixture was incubated with shaking at 20° C. for 10 minutes. • 0.1% (v/v) H3PO4 was added to stop the reaction. • Centrifugation. • HPLC analysis.
Inhibitors to the enzyme were studied. With the standard composition of reaction solution shown in Table 1, various inhibitors were added at a final concentration 1.0 mM or 0.1 mM to the solutions containing 2.92 U enzyme; after the mixtures were incubated at 20° C. for 10 minutes, the reaction was carried out for 15 minutes.

[2] = tested on: nitrile hydratase of Rhodococcus sp. Cr4; test: Substrate specificity of the purified nitrile hydratase (amide formation by HPLC); conditions: for substrate suitability: purified nitrile hydratase
Protocol: as §1
• 0.3 M 3-cyanopyridine was added to initiate the reaction. • The mixture was incubated with shaking at 20° C. for […]. • 2 N HCl was added to stop the reaction. • Centrifugation. • HPLC analysis.
The substrate specificity of the enzymewas examined. With the standard composition reaction solution shown in table 2, 2.92 U enzyme was incubated with various types of substrates, instead of 3-cyanopyridine; the generation of amides in the reaction solution was analyzed by HPLC. Thus, the relative activity was determined. The types of substrate compounds added, final concentrations thereof, reaction times, and HPLC conditions used for the analyses of products corresponding to the respective substrates are shown in Table 6. The HPLC conditions (1)-(9) are indicated next to Table 6.
The conditions for HPLC were as follows: • (1) Column: Waters Spherisorb 5 μODS2 (4.6×150 mm); • Solvent: 10 mM KH2PO4(pH 2.8)/acetonitrile (v/v)=9:1; • Flow rate: 1.0 ml/min; • Detection: 230 nm; • Injection volume: 5 μl. • (2) Column: Waters Spherisorb 5 μODS2 (4.6×150 mm); • Solvent: 10 mM KH2PO4(pH 2.8)/acetonitrile (v/v)=9:1; • Flow rate: 1.0 ml/min; • Detection: 230 nm; • Injection volume:5 μl. • (3) Column: Waters Spherisorb 5 μODS2 (4.6×150 mm); • Solvent: 5 mM KH2PO4 (pH 2.8)/acetonitrile (v/v)=12:7; • Flow rate: 1.0 ml/min; • Detection: 230 nm; • Injection volume: 5 μl. • (4) Column: Waters Spherisorb 5 μODS2 (4.6×150 mm); • Solvent: 10 mM KH2PO4(pH 2.5)/acetonitrile (v/v)=99:1; • Flow rate: 1.0 ml/min; • Detection: 210 nm; • Injection volume: 5 μl. • (5) Column: Waters Spherisorb 5 μODS2 (4.6×150 mm); • Solvent: 10 mM KH2PO4(pH 2.5)/acetonitrile (v/v)=99:1; • Flow rate: 1.0 ml/min; • Detection: 230 nm; • Injection volume: 5 μl. • (6) Column: Spherisorb S5ODS2 (4.6×150 mm) • Solvent: 0.1% (v/v) phosphate/acetonitrile (v/v)=99:1; • Flow rate: 1.0 ml/min; • Detection: 210 nm; • Injection volume: 5 μl. • (7) Column: Spherisorb S5ODS2 (4.6×150 mm); • Solvent: 0.1% (v/v) phosphate/acetonitrile (v/v)=9:1; • Flow rate: 1.0 ml/min; • Detection: 210 nm; • Injection volume: 5 μl; • Temperature: 40° C. • (8) Column: Spherisorb S5ODS2 (4.6×150 mm); • Solvent: 0.1%(v/v) phosphate/acetonitrile (v/v)=9:1; • Flow rate: 1.0 ml/min; • Detection: 230 nm; • Injection volume: 5 μl • Temperature: 40° C. • (9) Column: Spherisorb S5ODS2 (4.6×150 mm); • Solvent: 5 mM KH2PO4 (pH 2.8)/acetonitrile (v/v)=12:7; • Flow rate: 1.0 ml/min; • Detection: 210 nm; • Injection volume: 5 μl; • Temperature: 40° C. 13. The Effect of Inhibitors on the Enzymatic Activity

[3] = tested on: nitrile hydratase of Rhodococcus sp. Cr4
[4] = tested on: nitrile hydratase of Rhodococcus sp. Cr4; test: Effect of coexisting Ni++ ion with various substrates
Protocol: Then, with the standard composition of reaction solution shown in table 2, various types of substrates, instead of 3-cyanopyridine, were added to the solutions containing 2.92 U enzyme to study their effects on the activity. […] The addition of Ni^++ ion was assumed to specifically enhance the reaction efficiency when the substrate was a α-hydroxynitrile (Table 11).
The incubation was prolonged for 10 minutes at 20° C. using 2.92 U enzyme. 17. Determination of N-Terminal Amino Acid Sequence

[5] = compound used as substrate, methanol added (final conc. 20% v/v), 20° C., 2.92 U enzyme
[6] = compound 1.0 mM, Free = 100, HMBN substrate, 20° C.
[7] = compound used as substrate, activity for 3-cyanopyridine = 100%, 20° C., 2.92 U enzyme

NCCS [Cysteamine]
Relative activity (%) [1]: 106%

N#Cc1ccccc1Cl [o-Chlorobenzonitrile]
Relative activity (%) [2, 5]: 58.6%

N#CCC#N [Malononitrile]
substrate suitability [2]: suitable substrates

[Cl][Mn][Cl] [MnCl2]
Relative activity (%) [3]: 96.7%

[Cl][Hg][Cl] [HgCl2]
Relative activity (%) ([3]; metal 1.0 mM, Free = 100, incubated 20° C. 10 minutes): 7.48% | effect on enzyme activity (words) ([3]; metal ions): inhibited | effect on enzyme activity (words) ([3]; metal ions, listed as Hg^++): markedly inhibited

O=[N+]([O-])[O-].[Ag+] [AgNO3]
Relative activity (%) [3]: 7.85% | effect on enzyme activity (words) [3]: markedly inhibited

CC(C)CC#N [Isovaleronitrile]
Relative activity (%) [2, 5]: 2.71%

O=S(=O)(O)c1cc(O)c(O)c(S(=O)(=O)O)c1 [Tiron]
Relative activity (%) [1, 6]: 132%

N#Cc1ccccn1 [2-Cyanopyridine]
activity, Free [4]: 100 | activity, NiCl2 (1 mM) [4]: 97 | Relative activity (%) [2, 7]: 223% | substrate suitability [2]: suitable substrates

N#Cc1ccncc1 [4-Cyanopyridine]
activity, Free [4]: 100 | activity, NiCl2 (1 mM) [4]: 99 | Relative activity (%) [2, 7]: 127%

CC=CC#N [Crotononitrile]
activity, Free [4]: 100 | activity, NiCl2 (1 mM) [4]: 103 | Relative activity (%) [2, 7]: 87.4%

N#Cc1ccccc1 [Benzonitrile]
Relative activity (%) [2]: 138%

O=S(=O)([O-])[O-].[Cu+2] [CuSO4]
Relative activity (%) [3]: 109%

CCCCC#N [n-Valeronitrile]
Relative activity (%) [2, 5]: 118%

NNc1ccccc1 [Phenylhydrazine]
Relative activity (%) [1, 6]: 8.19% | effect on enzyme activity (words) ([1]; listed as phenyl hydrazine): markedly inhibited | effect on enzyme activity (words) ([1]; listed as phenylhydrazine): inhibited

CC(C)C#N [Isobutyronitrile]
Relative activity (%) [2, 5]: 40.9%

O[C@H](CS)[C@H](O)CS (racemic) [Dithiothreitol]
Relative activity (%) [1, 6]: 93.4%

CCCC#N [n-Butyronitrile]
activity, Free [4]: 100 | activity, NiCl2 (1 mM) [4]: 94 | Relative activity (%) [2, 5]: 379% | substrate suitability [2]: suitable substrates

C=CC#N [Acrylonitrile]
Relative activity (%) [2, 7]: 114%

O=S(=O)([O-])[O-].[Zn+2] [ZnSO4]
Relative activity (%) [3]: 84.1%

CC#N [Acetonitrile]
Relative activity (%) [2]: 14.6%

C/C(N)=C/C#N [β-aminochlotononitlile]
activity, Free [4]: 0 | activity, NiCl2 (1 mM) [4]: 0

N#Cc1ccc(Cl)cc1 [p-Chlorobenzonitrile]
Relative activity (%) [2]: 28.4%

N#Cc1cccc(Cl)c1 [m-Chlorobenzonitrile]
Relative activity (%) [2]: 7.18%

NO [Hydroxylamine]
Relative activity (%) [1, 6]: 62.1% | effect on enzyme activity (words) [1]: markedly inhibited

— patent US7300784B2 (priority 2001, dated 2007)
